One data set has as its system NCI-H358. As to the kind of experiment: Cytotoxicity against human NCI-H358 cells assessed as inhibition of growth measured after 72 hrs by CellTiter-Glo luciferase assay. It is filed as functional. A general note: Cellular ATP, detected with luciferase, serves as a proxy for viable cell number.
Data set [1] addresses RAF proto-oncogene serine/threonine-protein kinase (Homo sapiens, UniProt P04049). The experiment in a line: Inhibition of human recombinant cRAF measured after 60 mins by TR-FRET assay. Background: TR-FRET usually uses a lanthanide donor and a delayed reading to cut background.
Data set [2] is described as follows: Metabolic stability in human liver microsomes assessed as half life. It is filed as ADME, Microsome. A general note: Liver microsomes are vesicles of endoplasmic reticulum, rich in cytochrome P450 enzymes.
The nature of data set [3]: Solubility of the compound at pH 7.4. To be noted: buffer.
The nature of data set [4]: Cmax in Sprague-Dawley rat plasma at 2 mg/kg, IG by LC-MS/MS analysis. Format: ADME, organism-based. Also on record: route […], dose 2 mg/kg. The note with it: po.
The nature of data set [5]: AUC (0 to t) in Sprague-Dawley rat plasma at 2 mg/kg, IG by LC-MS/MS analysis. To be noted: Sprague-Dawley, plasma, po. Also on record: dose 2 mg/kg. It is filed as ADME, organism-based.
Data set [6] in a line: Clearance in Sprague-Dawley rat plasma at 1 mg/kg, iv by LC-MS/MS analysis. It is filed as ADME, organism-based.
A short description of data set [7]: Oral bioavailability in Sprague-Dawley rat by LC-MS/MS analysis. It is filed as ADME, organism-based. The note with it: Sprague-Dawley, in vivo.

The text below walks through data of ChEMBL document CHEMBL5038628, “Discovery of spiro amide SHR902275: A potent, selective, and efficacious RAF inhibitor targeting RAS mutant cancers” (Eur J Med Chem, 2022).

Values after ≈ are worked out from the molar mass of the structure shown.

RAF proto-oncogene serine/threonine-protein kinase, sequence (P04049 whole entry): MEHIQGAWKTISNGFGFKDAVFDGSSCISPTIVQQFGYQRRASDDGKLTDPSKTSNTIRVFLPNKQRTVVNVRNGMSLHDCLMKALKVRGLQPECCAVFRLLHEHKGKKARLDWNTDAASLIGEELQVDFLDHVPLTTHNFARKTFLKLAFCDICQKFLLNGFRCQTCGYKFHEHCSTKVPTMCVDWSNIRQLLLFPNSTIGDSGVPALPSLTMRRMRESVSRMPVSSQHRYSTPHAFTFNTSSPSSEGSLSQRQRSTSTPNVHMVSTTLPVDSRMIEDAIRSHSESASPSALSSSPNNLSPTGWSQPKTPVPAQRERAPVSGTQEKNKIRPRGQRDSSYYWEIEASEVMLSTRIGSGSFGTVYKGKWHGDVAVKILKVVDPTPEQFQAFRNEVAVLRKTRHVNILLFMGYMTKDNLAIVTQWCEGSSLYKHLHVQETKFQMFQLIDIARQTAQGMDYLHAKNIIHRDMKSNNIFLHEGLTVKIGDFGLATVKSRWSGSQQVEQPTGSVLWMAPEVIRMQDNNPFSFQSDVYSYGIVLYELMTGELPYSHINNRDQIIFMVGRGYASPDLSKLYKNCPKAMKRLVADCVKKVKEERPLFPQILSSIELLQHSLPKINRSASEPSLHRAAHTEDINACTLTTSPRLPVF

By GI50 is commonly meant the concentration that inhibits growth by half. One may read the IC50 as the concentration needed to halve the response being measured. In the case of `Cc1ncc(NC(=O)c2ccnc(C(F)(F)F)c2)cc1-c1ccc2c(c1)OC1(CCOCC1)CC(=O)N2`, in the data set with NCI-H358, the GI50 was determined as 6300 nM. For the same compound, the IC50 in data set [1] stood at 5 nM.

In the case of `Cc1ccc(NC(=O)N2CCCC(C(F)(F)F)C2)cc1-c1ccc2c(c1)OC1(CCOCC1)CC(=O)N2` (centres undefined), in the data set on NCI-H358, the GI50 came out at 5500 nM. In data set [1], the IC50 came to 13 nM.

As usually defined, the half-life is how long it takes for the measured level to halve. The solubility is the concentration that dissolves in the medium under given conditions. As to `Cc1ccc(NC(=O)c2cc(C(F)(F)F)cnn2)cc1-c1ccc2c(c1)OC1(CCOCC1)CC(=O)N2C`, the GI50 in the data set with NCI-H358 was 1300 nM. For the same compound, the half-life in data set [2] was 4.6 min. The IC50 in data set [1] amounted to 3.9 nM. In addition, the solubility in data set [3] was found to be 2.3 µM (≈ 1.21 µg/mL).

`Cc1ccc(NC(=O)c2ccnc(C(F)(F)F)c2)cc1-c1ccc2c(c1)OC1(CCOCC1)CCO2`: in the data set on NCI-H358, the GI50 is 8500 nM. In data set [1], the IC50 stood at 32 nM.

For `Cc1ccc(NC(=O)c2cc(C(F)(F)F)nn2C)cc1-c1ccc2c(c1)OC1(CCOCC1)CC(=O)N2`, the GI50 in the data set on NCI-H358 amounted to 13000 nM. Further, the IC50 in data set [1] was determined as 28 nM.

Regarding `Cc1cc(F)c(NC(=O)N(C)c2ccnc(C(F)(F)F)c2)cc1-c1ccc2c(c1)OC1(CCOCC1)CC(=O)N2`, the GI50 in the data set on NCI-H358 amounted to 9400 nM. Further, in data set [1], the IC50 came to 4.7 nM.

Consider `Cc1ccc(NC(=O)c2nccc(C(F)(F)F)n2)cc1-c1ccc2c(c1)OC1(CCOCC1)CC(=O)N2`, for which the GI50 in the data set with NCI-H358 was 2300 nM. For the same compound, the IC50 in data set [1] amounted to 2 nM. Besides, the solubility in data set [3] is 1.4 µM (≈ 0.717 µg/mL).

Consider `Cc1ccc(NC(=O)c2cc(C(F)(F)F)ncn2)cc1-c1ccc2c(c1)OC1(CCOCC1)CC(=O)N2`, for which, in the data set with NCI-H358, the GI50 was determined as 2700 nM. Also, the IC50 in data set [1] was determined as 5.5 nM. The compound also yielded a solubility in data set [3] of 0.35 µM (≈ 0.179 µg/mL).

Consider `Cc1ccc(NC(=O)c2ccnc(C(F)(F)F)c2)cc1-c1ccc2c(c1)OC1(CCOCC1)CNC2`, for which, in the data set with NCI-H358, the GI50 worked out at 15000 nM. Besides, the IC50 in data set [1] was found to be 4.3 nM.

Consider `Cc1cc(F)c(NC(=O)Cc2ccnc(C(F)(F)F)c2)cc1-c1ccc2c(c1)OC1(CCOCC1)CC(=O)N2`, for which the GI50 in the data set on NCI-H358 is 9400 nM. Further, the IC50 in data set [1] worked out at 3.2 nM.

Turning to `Cc1cnc(NC(=O)c2ccnc(C(F)(F)F)c2)cc1-c1ccc2c(c1)OC1(CCOCC1)CC(=O)N2`, the GI50 with NCI-H358 is 3800 nM. For the same compound, the IC50 in data set [1] worked out at 1.8 nM.

For the compound `Cc1ccc(NC(=O)c2ccnc(C(F)(F)F)c2)cc1-c1ccc2c(c1)OC1(CCOCC1)CN(C)C2=O`, the 50% growth inhibitory concentration (GI50) in the data set with NCI-H358 was 2900 nM. In data set [1], the IC50 stood at 1.3 nM. This compound also gave a solubility in data set [3] of 8.5 µM (≈ 4.47 µg/mL).

Usually Cmax stands for the maximum level reached in the sampled fluid or tissue. Broadly, the AUC(0-t) is the area under the concentration-time curve up to a stated or last time point. A higher AUC(0-t) goes with more exposure. Turning to `Cc1ccc(NC(=O)c2ccnc(C(F)(F)F)c2)cc1-c1ccc2c(c1)OC1(CCOCC1)CNC2=O`, the Cmax in data set [4] is 7.7 ng/mL. The GI50 in the data set on NCI-H358 came out at 2900 nM. Moreover, the AUC(0-t) in data set [5] came to 41.3 ng·h/mL. In addition, the IC50 in data set [1] was 3.6 nM. This compound displayed a solubility in data set [3] of 10.4 µM (≈ 5.32 µg/mL).

Consider `Cc1ccc(NC(=O)c2cc(C(F)F)cnn2)cc1-c1ccc2c(c1)OC1(CCOCC1)CC(=O)N2`, for which the GI50 in the data set with NCI-H358 was found to be 3900 nM. In addition, the IC50 in data set [1] worked out at 0.8 nM. The compound also showed a solubility in data set [3] of 7 µM (≈ 3.46 µg/mL).

`O=C1CC2(CCOCC2)Oc2cc(-c3cc(NC(=O)c4ccnc(C(F)(F)F)c4)ccc3CO)ccc2N1`: the GI50 in the data set on NCI-H358 worked out at 21000 nM. In addition, in data set [1], the IC50 was 3.5 nM.

Regarding `Cc1ccc(NC(=O)c2ccnc(C(F)(F)F)c2)cc1-c1ccc2c(c1)OC1(CCOCC1)CC(=O)N2C`, the GI50 in the data set on NCI-H358 is 7100 nM. Also, in data set [1], the IC50 came out at 4.5 nM.

As for `Cc1ccc(NC(=O)c2cc(C(F)(F)F)ccn2)cc1-c1ccc2c(c1)OC1(CCOCC1)CC(=O)N2`, in the data set with NCI-H358, the GI50 worked out at 2900 nM. Also, the IC50 in data set [1] came out at 11.3 nM. Besides, the concentration in solution in data set [3] (solubility) was 1.4 µM (≈ 0.716 µg/mL).

With `Cc1ccc(NC(=O)c2cncc(C(F)(F)F)c2)cc1-c1ccc2c(c1)OC1(CCOCC1)CC(=O)N2`, the GI50 in the data set with NCI-H358 worked out at 1600 nM. In addition, the IC50 in data set [1] was 5.4 nM. Further, in data set [3], the concentration in solution (solubility) came to 0.06 µM (≈ 0.0307 µg/mL).

Consider `Cc1ccc(NC(=O)c2ccnc(C3CC3)c2)cc1-c1ccc2c(c1)OC1(CCOCC1)CC(=O)N2`, for which the GI50 in the data set on NCI-H358 was 2500 nM. Besides, in data set [1], the IC50 is 7.1 nM. The compound also had a solubility in data set [3] of 0.61 µM (≈ 0.295 µg/mL).

Consider `Cc1ccc(NC(=O)c2cccc(C(F)(F)F)n2)cc1-c1ccc2c(c1)OC1(CCOCC1)CC(=O)N2`, for which, in the data set on NCI-H358, the GI50 was determined as 6800 nM. Further, the IC50 in data set [1] is 19.7 nM.

In the case of `Cc1ccc(NC(=O)c2cncc(C(F)(F)F)n2)cc1-c1ccc2c(c1)OC1(CCOCC1)CC(=O)N2`, the GI50 in the data set on NCI-H358 came out at 5200 nM. Also, the IC50 in data set [1] was 3.3 nM.

As to `COc1ccc(NC(=O)c2ccnc(C(F)(F)F)c2)cc1-c1ccc2c(c1)OC1(CCOCC1)CC(=O)N2`, the GI50 in the data set on NCI-H358 stood at 5900 nM. For the same compound, the IC50 in data set [1] came out at 3.6 nM.

As to `Cc1ccc(NC(=O)c2ccnc(C(F)(F)F)c2)cc1-c1ccc2c(c1)OC1(CCOCC1)CN(CCN(C)C)C2=O`, the GI50 in the data set on NCI-H358 amounted to 7600 nM. In addition, the IC50 in data set [1] was found to be 13 nM.

On to `Cc1ccc(NC(=O)c2ccc(C(F)(F)F)s2)cc1-c1ccc2c(c1)OC1(CCOCC1)CC(=O)N2`, for which the GI50 in the data set on NCI-H358 turned out to be 3400 nM. Also, the IC50 in data set [1] was 69 nM.

On to `Cc1ccc(C(=O)Nc2ccnc(C(F)(F)F)c2)cc1-c1ccc2c(c1)OC1(CCOCC1)CC(=O)N2`, for which the GI50 in the data set on NCI-H358 was determined as 8600 nM. The IC50 in data set [1] was determined as 21 nM.

The term clearance denotes the rate of elimination divided by the concentration. A higher clearance goes with efficient removal. For orientation: bioavailability means dose-corrected exposure relative to a reference, in per cent. A high value points to much systemic uptake. Compound `Cc1ccc(NC(=O)c2ccnc(C(F)(F)F)c2)cc1-c1ccc2c(c1)OC1(CCOCC1)CN(CCO)C2=O` yielded a Cmax in data set [4] of 5.9 ng/mL. Also, in the data set on NCI-H358, the GI50 came out at 3200 nM. Further, in data set [5], the AUC(0-t) stood at 29 ng·h/mL. This compound gave a clearance in data set [6] of 40.4 mL/min/kg. The IC50 in data set [1] came to 1.3 nM. Besides, in data set [7], the bioavailability worked out at 3.47%. Besides, the concentration in solution in data set [3] (solubility) was 311 µM (≈ 173 µg/mL).

`Cc1ccc(NC(=O)c2cc(C(F)(F)F)cnn2)cc1-c1ccc2c(c1)OC1(CCOCC1)CC(=O)N2CCO`: the GI50 in the data set with NCI-H358 stood at 2600 nM. Besides, the half-life in data set [2] turned out to be 11 min. The IC50 in data set [1] worked out at 2.6 nM.

Take `Cc1ccc(NC(=O)c2ccnc(C(F)(F)F)c2)cc1-c1ccc2c(c1)OC1(CCN2)CCOCC1`: the GI50 with NCI-H358 stood at 13000 nM. For the same compound, in data set [1], the IC50 was found to be 5.4 nM.

As to `Cc1ccc(NC(=O)c2cc(OCCO)nc(C(F)(F)F)c2)cc1-c1ccc2c(c1)OC1(CCOCC1)CC(=O)N2`, the GI50 in the data set with NCI-H358 is 4300 nM. Moreover, the IC50 in data set [1] came to 26 nM.

`Cc1ccc(NC(=O)c2ccnc(C(F)(F)F)c2)nc1-c1ccc2c(c1)OC1(CCOCC1)CC(=O)N2`: the GI50 with NCI-H358 is greater than 30000 nM. The IC50 in data set [1] stood at 2.2 nM.

In the case of `Cc1ccc(NS(=O)(=O)c2ccnc(C(F)(F)F)c2)cc1-c1ccc2c(c1)OC1(CCOCC1)CC(=O)N2`, the GI50 with NCI-H358 was greater than 30000 nM. In addition, the IC50 in data set [1] worked out at 32 nM.

For `Cc1ccc(NC(=O)c2cc(OC3CC3)cnn2)cc1-c1ccc2c(c1)OC1(CCOCC1)CC(=O)N2`, the concentration for 50% growth inhibition (GI50) in the data set with NCI-H358 was determined as 1900 nM. The half-life in data set [2] was found to be 6.8 min. In addition, in data set [1], the IC50 worked out at 3.4 nM.

In the case of `Cc1ccc(NC(=O)c2ccnc(C(F)(F)F)c2)cc1-c1ccc2c(c1)OC1(CCOCC1)CC(=O)N2CCO`, the GI50 in the data set with NCI-H358 turned out to be 4700 nM. Besides, the IC50 in data set [1] came out at 0.83 nM.

Consider `Cc1ccc(NC(=O)c2cc(OCCO)nc(OC(F)F)c2)cc1-c1ccc2c(c1)OC1(CCOCC1)CC(=O)N2`, for which the GI50 in the data set on NCI-H358 is 2000 nM. Further, the IC50 in data set [1] stood at 9.2 nM. The compound also showed a solubility in data set [3] of 0.41 µM (≈ 0.234 µg/mL).

For `Cc1ccc(NC(=O)c2ccnc(C(F)(F)F)c2)cc1-c1ccc2c(c1)OC1(CCOCC1)CN(CC(C)(C)O)C2=O`, the GI50 in the data set with NCI-H358 came out at 6200 nM. In data set [1], the IC50 came to 34 nM.

As for `Cc1ccc(NC(=O)C2CCNC(C(F)(F)F)C2)cc1-c1ccc2c(c1)OC1(CCOCC1)CC(=O)N2` (centres undefined), the GI50 in the data set with NCI-H358 is greater than 30000 nM. In addition, the IC50 in data set [1] stood at 3.3 nM.

With `Cc1ccc(NC(=O)c2ccnc(C(F)(F)F)n2)cc1-c1ccc2c(c1)OC1(CCOCC1)CC(=O)N2`, the GI50 in the data set with NCI-H358 stood at 12000 nM. For the same compound, the IC50 in data set [1] was 334 nM.
